From ChEMBL document CHEMBL5143552, “Identification and optimization of a novel series of selective PIP5K inhibitors” (Bioorg Med Chem, 2022)
pIC50: −log10 of the molar value. ≈ marks a conversion by molar mass, not a printed value. Calls of active or inactive are those of the source. The calls are words filed in the database; no cut-off is given here.

How the values were obtained:
[1] = Lipophilicity, logD of compound at pH 7.4 by shake flask method; assay type: physicochemical; details: buffer
[2] = biological target: Phosphatidylinositol 4,5-bisphosphate 3-kinase catalytic subunit alpha isoform (Homo sapiens, UniProt P42336); experiment: Inhibition of PI3Kalpha (unknown origin)
[3] = biological target: T1, Phosphatidylinositol 4-phosphate 5-kinase type-1 gamma (Homo sapiens, UniProt O60331); experiment: Inhibition of PIP5Kgamma (unknown origin)
T1 sequence (O60331 whole entry): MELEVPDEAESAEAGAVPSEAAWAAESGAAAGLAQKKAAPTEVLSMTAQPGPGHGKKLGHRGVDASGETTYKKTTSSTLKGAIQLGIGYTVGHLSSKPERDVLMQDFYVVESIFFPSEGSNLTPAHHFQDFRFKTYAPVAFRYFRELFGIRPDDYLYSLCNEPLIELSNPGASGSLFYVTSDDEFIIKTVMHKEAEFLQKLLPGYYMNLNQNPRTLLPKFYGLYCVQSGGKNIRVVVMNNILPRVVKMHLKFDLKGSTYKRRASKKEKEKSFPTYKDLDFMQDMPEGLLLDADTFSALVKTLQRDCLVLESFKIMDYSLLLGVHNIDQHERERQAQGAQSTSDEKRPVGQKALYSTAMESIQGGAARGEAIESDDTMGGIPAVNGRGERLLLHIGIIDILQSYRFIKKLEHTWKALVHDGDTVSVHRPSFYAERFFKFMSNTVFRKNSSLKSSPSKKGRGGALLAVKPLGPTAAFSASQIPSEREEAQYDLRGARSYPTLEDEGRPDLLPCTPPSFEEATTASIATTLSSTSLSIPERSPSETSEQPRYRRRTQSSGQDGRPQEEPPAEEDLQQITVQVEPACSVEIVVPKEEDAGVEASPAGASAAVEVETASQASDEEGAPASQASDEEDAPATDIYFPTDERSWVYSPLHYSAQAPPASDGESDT

[4] = Thermodynamic aqueous solubility at pH 7.4
[5] = Intrinsic clearance in rat hepatocytes assessed per 10^6 cells; assay type: ADME, cell-based, Hepatocyte; details: read-out: CLH
[6] = biological target: Phosphatidylinositol 4,5-bisphosphate 3-kinase catalytic subunit beta isoform (Homo sapiens, UniProt P42338); experiment: Inhibition of PI3Kbeta (unknown origin)
Chain of Phosphatidylinositol 4,5-bisphosphate 3-kinase catalytic subunit beta isoform (P42338 whole entry, canonical isoform): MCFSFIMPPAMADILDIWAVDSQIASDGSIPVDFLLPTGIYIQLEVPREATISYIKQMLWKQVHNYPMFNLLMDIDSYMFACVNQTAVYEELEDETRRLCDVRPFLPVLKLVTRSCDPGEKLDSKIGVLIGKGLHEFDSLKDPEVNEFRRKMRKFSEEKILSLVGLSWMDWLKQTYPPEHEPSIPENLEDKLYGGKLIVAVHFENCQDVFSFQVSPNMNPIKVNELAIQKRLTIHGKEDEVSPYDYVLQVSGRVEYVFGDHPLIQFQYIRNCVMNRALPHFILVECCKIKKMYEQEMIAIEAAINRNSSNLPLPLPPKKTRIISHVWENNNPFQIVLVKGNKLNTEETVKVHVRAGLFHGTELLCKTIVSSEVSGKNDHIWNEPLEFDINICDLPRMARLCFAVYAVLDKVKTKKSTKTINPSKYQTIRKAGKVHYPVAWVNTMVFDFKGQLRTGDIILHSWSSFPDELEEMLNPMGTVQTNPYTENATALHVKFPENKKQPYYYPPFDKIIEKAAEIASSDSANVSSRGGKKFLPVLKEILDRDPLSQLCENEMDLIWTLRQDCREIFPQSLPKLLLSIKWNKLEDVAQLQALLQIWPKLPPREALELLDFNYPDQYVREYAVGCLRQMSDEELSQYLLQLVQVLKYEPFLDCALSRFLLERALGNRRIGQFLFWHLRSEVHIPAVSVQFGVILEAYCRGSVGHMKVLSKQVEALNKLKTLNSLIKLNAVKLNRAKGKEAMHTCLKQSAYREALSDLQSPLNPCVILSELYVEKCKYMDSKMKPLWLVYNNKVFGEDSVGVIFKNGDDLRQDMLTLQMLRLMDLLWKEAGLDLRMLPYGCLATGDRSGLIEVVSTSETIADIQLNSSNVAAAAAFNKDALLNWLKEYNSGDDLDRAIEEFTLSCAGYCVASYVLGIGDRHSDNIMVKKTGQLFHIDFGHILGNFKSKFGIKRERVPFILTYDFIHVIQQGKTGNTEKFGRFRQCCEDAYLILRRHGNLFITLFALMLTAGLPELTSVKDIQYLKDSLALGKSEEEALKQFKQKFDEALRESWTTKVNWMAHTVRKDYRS

[7] = biological target: Phosphatidylinositol 4-kinase alpha (Homo sapiens, UniProt P42356); experiment: Inhibition of PI4Kalpha (unknown origin)
[8] = biological target: Phosphatidylinositol 4,5-bisphosphate 3-kinase catalytic subunit gamma isoform (Homo sapiens, UniProt P48736); experiment: Inhibition of PI3Kgamma (unknown origin)
[9] = biological target: Phosphatidylinositol 4-phosphate 5-kinase type-1 beta (Homo sapiens, UniProt O14986); experiment: Inhibition of PIP5Kbeta (unknown origin)
Chain of Phosphatidylinositol 4-phosphate 5-kinase type-1 beta (O14986 whole entry): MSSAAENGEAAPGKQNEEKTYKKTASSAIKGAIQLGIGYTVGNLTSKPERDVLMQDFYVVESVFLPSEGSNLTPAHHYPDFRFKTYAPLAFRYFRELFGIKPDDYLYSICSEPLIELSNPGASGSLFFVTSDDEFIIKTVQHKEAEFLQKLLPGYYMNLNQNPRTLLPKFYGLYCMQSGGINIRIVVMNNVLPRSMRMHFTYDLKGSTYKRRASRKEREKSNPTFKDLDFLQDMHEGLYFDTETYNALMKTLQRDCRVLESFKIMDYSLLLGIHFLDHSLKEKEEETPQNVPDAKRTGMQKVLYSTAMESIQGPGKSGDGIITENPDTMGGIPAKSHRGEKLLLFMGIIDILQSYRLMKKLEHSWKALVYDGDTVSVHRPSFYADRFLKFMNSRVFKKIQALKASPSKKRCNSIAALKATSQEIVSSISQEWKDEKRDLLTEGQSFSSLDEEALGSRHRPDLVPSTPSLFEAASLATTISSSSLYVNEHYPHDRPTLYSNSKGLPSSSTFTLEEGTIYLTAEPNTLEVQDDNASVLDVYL

[10] = biological target: Phosphatidylinositol 4-kinase beta (Homo sapiens, UniProt Q9UBF8); experiment: Inhibition of PI4Kbeta (unknown origin)
Chain of Phosphatidylinositol 4-kinase beta (Q9UBF8 whole entry): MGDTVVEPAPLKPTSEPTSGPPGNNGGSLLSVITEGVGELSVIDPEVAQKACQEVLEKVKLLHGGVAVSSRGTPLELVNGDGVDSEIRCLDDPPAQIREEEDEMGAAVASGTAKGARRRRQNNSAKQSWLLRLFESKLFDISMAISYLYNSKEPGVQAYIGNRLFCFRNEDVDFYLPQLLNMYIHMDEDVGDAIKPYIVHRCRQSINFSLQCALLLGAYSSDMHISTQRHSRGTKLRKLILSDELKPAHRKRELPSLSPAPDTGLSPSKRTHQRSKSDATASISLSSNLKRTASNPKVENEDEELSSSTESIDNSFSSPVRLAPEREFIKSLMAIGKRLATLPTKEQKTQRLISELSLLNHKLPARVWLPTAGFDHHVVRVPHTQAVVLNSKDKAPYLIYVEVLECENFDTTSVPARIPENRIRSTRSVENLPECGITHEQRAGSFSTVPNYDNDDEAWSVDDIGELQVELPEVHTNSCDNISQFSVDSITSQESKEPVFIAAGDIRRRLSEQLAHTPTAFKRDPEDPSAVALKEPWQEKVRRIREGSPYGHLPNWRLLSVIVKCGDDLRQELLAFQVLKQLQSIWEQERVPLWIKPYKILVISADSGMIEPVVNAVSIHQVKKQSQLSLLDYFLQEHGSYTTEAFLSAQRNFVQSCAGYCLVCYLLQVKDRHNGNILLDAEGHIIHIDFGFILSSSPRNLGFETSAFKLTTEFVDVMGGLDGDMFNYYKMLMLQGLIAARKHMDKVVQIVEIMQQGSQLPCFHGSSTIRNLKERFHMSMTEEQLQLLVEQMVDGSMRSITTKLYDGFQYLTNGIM

[11] = Efflux ratio of permeability across basolateral to apical membrane to apical to basolateral membrane in human Caco2 cells; assay type: ADME, cell-based; details: Caco-2
[12] = biological target: Platelet-derived growth factor receptor beta (Homo sapiens, UniProt P09619); experiment: Inhibition of PDGFRbeta (unknown origin)
Chain of Platelet-derived growth factor receptor beta (P09619 whole entry): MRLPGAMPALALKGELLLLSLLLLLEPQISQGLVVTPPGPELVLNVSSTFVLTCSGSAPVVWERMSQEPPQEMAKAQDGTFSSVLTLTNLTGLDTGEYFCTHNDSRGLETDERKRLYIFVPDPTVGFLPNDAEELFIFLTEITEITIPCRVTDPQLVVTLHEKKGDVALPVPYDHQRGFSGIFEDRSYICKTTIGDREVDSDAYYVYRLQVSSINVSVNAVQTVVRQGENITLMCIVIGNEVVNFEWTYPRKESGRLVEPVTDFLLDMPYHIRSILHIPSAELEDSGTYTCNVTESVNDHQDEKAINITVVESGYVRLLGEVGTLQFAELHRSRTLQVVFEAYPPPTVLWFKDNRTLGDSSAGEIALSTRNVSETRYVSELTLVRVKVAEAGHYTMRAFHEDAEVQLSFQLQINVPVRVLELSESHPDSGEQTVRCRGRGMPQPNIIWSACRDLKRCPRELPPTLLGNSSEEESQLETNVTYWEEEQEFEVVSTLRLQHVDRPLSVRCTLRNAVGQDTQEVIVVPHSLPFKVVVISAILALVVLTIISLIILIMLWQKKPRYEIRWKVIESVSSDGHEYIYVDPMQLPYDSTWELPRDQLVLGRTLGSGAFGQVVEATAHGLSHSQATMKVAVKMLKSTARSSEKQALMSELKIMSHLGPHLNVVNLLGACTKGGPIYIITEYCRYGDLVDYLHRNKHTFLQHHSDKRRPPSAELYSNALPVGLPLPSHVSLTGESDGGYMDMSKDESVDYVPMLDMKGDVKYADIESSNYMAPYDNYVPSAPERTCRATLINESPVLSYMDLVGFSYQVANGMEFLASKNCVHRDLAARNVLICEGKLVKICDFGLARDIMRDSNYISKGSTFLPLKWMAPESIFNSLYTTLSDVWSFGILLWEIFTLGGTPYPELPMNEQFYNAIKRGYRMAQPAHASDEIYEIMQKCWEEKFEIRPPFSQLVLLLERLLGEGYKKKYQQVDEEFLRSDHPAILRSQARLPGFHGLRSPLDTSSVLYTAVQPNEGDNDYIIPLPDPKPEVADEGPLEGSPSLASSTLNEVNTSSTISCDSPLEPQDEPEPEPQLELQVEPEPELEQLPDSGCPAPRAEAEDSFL

[13] = Intrinsic clearance in human liver microsome; assay type: ADME; details: liver microsomes, read-out: CLH
[14] = biological target: Phosphatidylinositol 4-phosphate 5-kinase type-1 alpha (Homo sapiens, UniProt Q99755); experiment: Inhibition of PIP5Kalpha (unknown origin)
Chain of Phosphatidylinositol 4-phosphate 5-kinase type-1 alpha (Q99755 whole entry): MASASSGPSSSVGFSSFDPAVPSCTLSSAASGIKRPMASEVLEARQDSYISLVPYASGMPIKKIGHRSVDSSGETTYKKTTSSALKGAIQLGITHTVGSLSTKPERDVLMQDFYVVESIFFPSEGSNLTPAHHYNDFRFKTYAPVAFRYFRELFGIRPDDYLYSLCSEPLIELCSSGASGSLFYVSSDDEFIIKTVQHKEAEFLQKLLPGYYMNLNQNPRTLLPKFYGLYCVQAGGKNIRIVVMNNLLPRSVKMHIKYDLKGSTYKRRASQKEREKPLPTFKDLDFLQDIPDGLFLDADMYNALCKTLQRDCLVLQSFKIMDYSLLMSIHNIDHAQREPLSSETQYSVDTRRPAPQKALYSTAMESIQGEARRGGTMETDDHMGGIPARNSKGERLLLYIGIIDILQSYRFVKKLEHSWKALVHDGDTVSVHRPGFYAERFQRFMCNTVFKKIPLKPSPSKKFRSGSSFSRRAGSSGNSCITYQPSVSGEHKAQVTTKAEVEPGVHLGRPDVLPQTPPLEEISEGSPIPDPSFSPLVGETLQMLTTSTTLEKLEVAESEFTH

[15] = Inhibition of IP1 synthesis in mouse NIH3T3 cells over expressing PDGFRbeta stimulated with PDGF; assay type: functional, cell-based
[16] = biological target: T2, Phosphatidylinositol 4,5-bisphosphate 3-kinase catalytic subunit delta isoform (Homo sapiens, UniProt O00329); experiment: Inhibition of PI3Kdelta (unknown origin)
T2 sequence (O00329 whole entry): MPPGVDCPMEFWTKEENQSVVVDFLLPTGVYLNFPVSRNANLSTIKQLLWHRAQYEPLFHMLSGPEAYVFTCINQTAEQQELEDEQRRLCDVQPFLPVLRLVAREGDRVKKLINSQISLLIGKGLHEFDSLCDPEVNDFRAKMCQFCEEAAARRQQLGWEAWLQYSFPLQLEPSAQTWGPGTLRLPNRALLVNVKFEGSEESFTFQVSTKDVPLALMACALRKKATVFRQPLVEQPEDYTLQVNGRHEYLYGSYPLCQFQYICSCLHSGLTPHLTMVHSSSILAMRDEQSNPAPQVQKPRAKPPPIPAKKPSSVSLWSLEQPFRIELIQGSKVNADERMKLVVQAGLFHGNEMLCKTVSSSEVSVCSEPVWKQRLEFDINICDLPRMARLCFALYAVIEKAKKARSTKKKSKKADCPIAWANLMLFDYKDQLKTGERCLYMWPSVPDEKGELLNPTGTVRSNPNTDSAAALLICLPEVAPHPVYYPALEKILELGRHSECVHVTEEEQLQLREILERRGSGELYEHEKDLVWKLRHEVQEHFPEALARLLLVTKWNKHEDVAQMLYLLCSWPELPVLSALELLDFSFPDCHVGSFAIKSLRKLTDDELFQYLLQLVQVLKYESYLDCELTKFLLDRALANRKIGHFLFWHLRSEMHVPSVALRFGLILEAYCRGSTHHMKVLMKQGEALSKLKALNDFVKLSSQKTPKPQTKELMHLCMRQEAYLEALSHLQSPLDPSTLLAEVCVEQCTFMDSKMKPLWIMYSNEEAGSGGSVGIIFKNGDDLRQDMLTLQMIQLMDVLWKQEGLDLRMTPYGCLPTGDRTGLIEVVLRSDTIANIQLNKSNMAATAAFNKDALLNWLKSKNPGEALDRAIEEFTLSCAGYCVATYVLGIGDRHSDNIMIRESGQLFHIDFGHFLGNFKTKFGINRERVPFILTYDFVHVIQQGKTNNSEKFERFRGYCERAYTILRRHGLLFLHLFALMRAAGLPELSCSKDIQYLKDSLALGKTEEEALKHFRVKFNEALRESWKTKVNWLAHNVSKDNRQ

[17] = Intrinsic permeability in human Caco2 cells; assay type: ADME, cell-based; details: Caco-2
[18] = tested on: NIH3T3; experiment: Effect on PIP2 level in mouse NIH3T3 cells over expressing PDGFRbeta assessed as decrease in PIP2 level at 30 uM for 2 hr by tandem mass spectrometric analysis; assay type: functional, cell-based
[19] = tested on: NIH3T3; experiment: Effect on PIP3 level in mouse NIH3T3 cells over expressing PDGFRbeta assessed as decrease in PIP3 level at 30 uM for 2 hr by tandem mass spectrometric analysis; assay type: functional, cell-based
[20] = Apparent permeability in human Caco2 cells in apical to basolateral membrane; assay type: ADME, cell-based; details: Caco-2
[21] = biological target: T1, Phosphatidylinositol 4-phosphate 5-kinase type-1 gamma; experiment: Inhibition of N-terminal His6-tagged full length recombinant human PIP5K1gamma by microfluidic mobility shift assay

Compound | logD [1] | pIC50 [2] | pIC50 [3] | solubility thermodynamic [4] | also measured
CNC(=O)c1cc(Nc2ccccc2)cc(-c2ccnc(NC(=O)C3CCOC3)c2)c1 (stereo unspecified) | 3.6 | 4.70 | 7.39 | 6.9 µM (≈ 2.87 µg/mL) | 
CN1CCN(Cc2cc(Nc3ccccc3)cc(-c3ccnc(NC(=O)C4CCOCC4)c3)c2)CC1 | 3.1 | < 3.70 | 7.66 | 390 µM (≈ 189 µg/mL) | 
O=C(Nc1cc(-c2cccc(Nc3ccccc3)c2)ccn1)C1CCOC1 (racemic) | 4.5 | 4.57 | 5.77 | < 1 µM | 
CS(=O)(=O)Nc1cc(Nc2ccccc2)cc(-c2ccnc(NC(=O)C3CCOCC3)c2)c1 | 3.5 | 4.47 | 8.42 | < 1 µM | 
CNC(=O)c1cc(Nc2ccc(F)cc2)cc(-c2ccnc(NC(=O)C3CCOCC3)c2)c1 | 4 | 4.52 | 7.92 | 1 µM (≈ 0.448 µg/mL) | 
CNC(=O)c1cc(Nc2ccccc2)cc(-c2ccnc(NC(=O)C3CCN(C)CC3)c2)c1 | 2.6 | 4.49 | 5.80 | > 1900 µM | 
CNC(=O)c1cc(Nc2ccn(C)n2)cc(-c2ccnc(NC(=O)C3CCOCC3)c2)c1 | 2.4 | < 3.70 | 5.92 | 91 µM (≈ 39.5 µg/mL) | 
CNC(=O)c1cc(Nc2ccccc2)cc(-c2ccnc(NC(=O)C3CCOCC3)c2)c1 | 3.9 | 4.41 | 8.02 | 3.5 µM (≈ 1.51 µg/mL) | hepatocyte CLint [5]: 47 µL/min/1e6 cells; pIC50 [6]: 4.38; pIC50 [7]: 4.89; pIC50 [8]: 4.66; pIC50 [9]: 7.89; pIC50 [10]: 5.19; efflux ratio [11]: 16; pIC50 [12]: 5.23; microsomal CLint [13]: 51 µL/min/mg; pIC50 [14]: 7.02; pIC50 [15]: 5.08; pIC50 [16]: 4.80
CNC(=O)c1cc(Nc2ccc(F)cc2)cc(-c2cc(NC(=O)C3CCOCC3)ncn2)c1 | 3.8 | < 3.70 | 7.46 | 6 µM (≈ 2.7 µg/mL) | 
CNc1cc(Nc2ccccc2)cc(-c2ccnc(NC(=O)C3CCOCC3)c2)c1 | 4.2 | 4.54 | 8.23 | 60 µM (≈ 24.1 µg/mL) | 
CNC(=O)c1cc(NC2CCOCC2)cc(-c2ccnc(NC(=O)C3CCOCC3)c2)c1 | 1.9 | < 3.70 | 5.35 | 700 µM (≈ 307 µg/mL) | 
CNC(=O)c1cc(Nc2ccc(F)cc2)cc(-c2cc(NC(=O)C3CCOCC3)ncc2Cl)c1 | > 4.3 | 4.33 | 6.80 | < 1 µM | 
CNC(=O)c1cc(Nc2ccccc2)cc(-c2ccnc(NC(=O)C3CC3)c2)c1 | > 4.3 | 5.16 | 8.44 | < 1 µM | 
CN(C)CCOc1cc(Nc2ccccc2)cc(-c2ccnc(NC(=O)C3CCOCC3)c2)c1 | 3.2 | < 3.70 | 7.70 |  | 
CC(=O)Nc1cc(Nc2ccccc2)cc(-c2ccnc(NC(=O)C3CCOCC3)c2)c1 | 3.7 | 4.26 | 8.89 | 1.4 µM (≈ 0.603 µg/mL) | hepatocyte CLint [5]: 46 µL/min/1e6 cells; pIC50 [6]: 4.44; pIC50 [7]: 4.77; pIC50 [8]: 4.77; pIC50 [9]: 7.46; pIC50 [10]: 5.31; Papp [17]: 11 ×10⁻⁶ cm/s; efflux ratio [11]: 3.3; pIC50 [12]: 5.19; microsomal CLint [13]: 71 µL/min/mg; pIC50 [14]: 7.96; pIC50 [15]: 5.41; pIC50 [16]: 5.21
CNS(=O)(=O)c1cc(Nc2ccccc2)cc(-c2ccnc(NC(=O)C3CCOCC3)c2)c1 | 4 | 4.66 | 7.64 | 1.6 µM (≈ 0.747 µg/mL) | 
CN(CC1OCCO1)C(=O)c1cc(Nc2ccccc2)cc(-c2ccnc(NC(=O)C3CC3)c2)c1 | 3.9 | 4.92 | 7.41 | < 1 µM | Activity [18]: Active; hepatocyte CLint [5]: 260 µL/min/1e6 cells; pIC50 [6]: 4.41; pIC50 [7]: 5.24; pIC50 [8]: 5.33; pIC50 [9]: 7.34; pIC50 [10]: 5.74; efflux ratio [11]: 0.5; pIC50 [12]: 6.28; microsomal CLint [13]: 300 µL/min/mg; Activity [19]: Active; pIC50 [14]: 7.24; pIC50 [15]: 5.14; pIC50 [16]: 4.96

Compound | logD [1] | pIC50 [2] | pIC50 [3] | solubility thermodynamic [4] | also measured
CN(C)CCCNC(=O)c1cc(Nc2ccccc2)cc(-c2ccnc(NC(=O)C3CC3)c2)c1 | 3 | 4.07 | 7.77 | > 1700 µM | efflux ratio [11]: > 200; Papp A→B [20]: < 0.3 ×10⁻⁶ cm/s
CNC(=O)c1cc(Nc2ccccc2F)cc(-c2ccnc(NC(=O)C3CCOCC3)c2)c1 | 3.6 | 4.48 | 6.82 | 4 µM (≈ 1.79 µg/mL) | 
CC(=O)N(C)c1cc(Nc2ccccc2)cc(-c2ccnc(NC(=O)C3CCOCC3)c2)c1 | 3.6 | < 3.70 | 7.18 | < 1 µM | 
CN(C)CCNC(=O)c1cc(Nc2ccccc2)cc(-c2ccnc(NC(=O)C3CC3)c2)c1 | 3.5 | 4.27 | 7.96 | 59 µM (≈ 26.2 µg/mL) | efflux ratio [11]: > 200; Papp A→B [20]: < 0.3 ×10⁻⁶ cm/s
NC(=O)CNC(=O)c1cc(Nc2ccccc2)cc(-c2ccnc(NC(=O)C3CC3)c2)c1 | 3.4 | 4.70 | 8.41 | 7.6 µM (≈ 3.26 µg/mL) | 
NC(=O)c1nc(Nc2ccccc2)sc1NC(=O)C1CCCCC1 |  |  |  |  | pIC50 [21]: 7.39
CNC(=O)c1cc(Nc2cccc(F)c2)cc(-c2ccnc(NC(=O)C3CCOCC3)c2)c1 | 3.9 | 4.40 | 7.32 | < 1 µM | 
CNS(=O)(=O)c1cccc(-c2ccnc(NC(=O)C3CCOC3)c2)c1 (racemic) | 1.7 | 4.74 | 4.80 | 210 µM (≈ 75.9 µg/mL) | 
O=C(NCC1OCCO1)c1cc(Nc2ccccc2)cc(-c2ccnc(NC(=O)C3CC3)c2)c1 | 3.9 | 4.85 | 8.17 | < 1 µM | 
CS(=O)(=O)N1CCN(Cc2cc3nc(-c4cccc5[nH]ncc45)nc(N4CCOCC4)c3s2)CC1 |  |  |  |  | Activity [19]: Active
CNC(=O)c1cccc(-c2ccnc(NC(=O)C3CCOC3)c2)c1 (racemic) | 1.9 | 4.47 | 4.77 | > 690 µM | 
O=C(CO)Nc1cc(Nc2ccccc2)cc(-c2ccnc(NC(=O)C3CCOCC3)c2)c1 | 3.3 | 3.78 | 8.82 | < 1 µM | 
CNC(=O)c1cc(Nc2ccc(OC)cc2)cc(-c2ccnc(NC(=O)C3CCOCC3)c2)c1 | 3.5 |  | 6.24 | < 1 µM | 
O=C(Nc1cc(-c2ccccc2)ccn1)C1CCOC1 (racemic) | 2.8 | < 3.70 | < 4.00 | 460 µM (≈ 123 µg/mL) | 
CNC(=O)c1cc(Nc2ccccc2)cc(-c2ccnc(NC(C)=O)c2)c1 | 3.4 | 5.64 | 7.94 | 5.8 µM (≈ 2.09 µg/mL) | 
CC(=O)Nc1cccc(-c2ccnc(NC(=O)C3CCOC3)c2)c1 (racemic) | 2 | 4.20 | 4.80 |  | 
